Literature values, collected in patent publication US20250161386A1, “METHOD OF IMPROVING COGNITIVE FUNCTION IN ADULTS” (SEMPERA ORGANICS, INC., priority 2023, published 2025).

Columns and labels:
[1] = rat, oral administration of H. erinaceus mycelia extract
[2] = system: pro-brain-derived neurotrophic factor (BDNF); conditions: mice, after administration

time of peak plasma concentration post dose [1] [min]	SMILES	circulating pro-BDNF [2]
270	CC(C)C1=C2[C@H]3CCC4=C(O)C(=O)[C@@]5(O)CO[C@H]6O[C@@H]([C@@H]4[C@]65O)[C@]3(C)CC[C@@]2(C)CC1 [erinacine S]	–
–	CCCCCCCCCCCCCCCC(=O)OCc1cc(OC)c(C/C=C(\C)CCC=C(C)C)c(O)c1C=O [hericene A]	increase
